Measured values as given in PMC4723341, “Ribonuclease H/DNA Polymerase HIV-1 Reverse Transcriptase Dual Inhibitor: Mechanistic Studies on the Allosteric Mode of Action of Isatin-Based Compound RMNC6” (PLoS ONE, 2016).

Tests used:
[1] = biological target: T1, HIV-1 RT RNA-dependent DNA polymerase activity (Human immunodeficiency virus type 1 group M subtype B, UniProt P04585); assay: Yonetani-Theorell analysis of RMNC6 and EFV on RDDP function; format: biochemical
T1 construct: The 1:1 ration between the p66/p51 subunits was also verified; made in house; host or cells: E. coli M15
Experimental: RNA-dependent DNA polymerase (RDDP) activity was measured as described in 25 μL volume containing 60 mM Tris-HCl buffer pH 8.1, 8 mM MgCl2, 60 mM KCl, 13 mM DTT, 2.5 μM poly(A)-oligo(dT), 100 μM dTTP, increasing concentrations of inhibitors, whose dilution were made in water, and different amounts of enzymes according to a linear range of dose-response curve: 6 ng wt RT; 30 ng K103N RT; 12 ng V106ART; 19 ng V108A RT; 1.51.5 ng Y181C RT; 45 ng Y188A RT; 15 ng Y188L RT; 30 ng E224A RT; 15 ng P225A RT; 18 ng P226A RT; 23 ng F227A RT; 15 ng L228A RT; 30 ng W229A RT; 30 ng M230A RT; 15 ng G231A RT; 15 ng N474A RT; 15 ng Y501A RT; 15 ng A502F RT; 19 ng A508V RT; 38 ng HIV-1 group O RT. After enzyme addition, the reaction mixture was incubated for 30 min at 37°C and the stopped by addition of EDTA. Reaction products were detected by picogreen addition and measured with a multilabel counter plate reader Victor 3 (Perkin Elmer model 1420–051) equipped with filters for 502/523 nm (excitation/emission wavelength). The Yonetani-Theorell analysis was performed as described previously.

[2] = biological target: DNA polymerase activity of HIV-1 group O RT and wild-type and mutant HIV-1 group M subtype B RTs; assay: RDDP assays, HIV-1 group O RT and wild-type and mutant HIV-1 group M subtype B RTs together; format: biochemical; details: wild-type and mutant (K103N, Y181C, Y188L) group M subtype B RTs, read-out: IC50 RDDP, range over all enzymes

N#Cc1ccc(-c2csc(NN=C3C(=O)Nc4ccccc43)n2)cc1 [RMNC6, (Z)-4-(2-(2-(2-oxoindolin-3-ylidene)hydrazinyl)thiazol-4-yl)benzonitrile]
Mutual exclusivity of inhibition (Yonetani-Theorell, words) ([1]; RMNC6 combined with EFV (4, 8, 16 nM) on RDDP function): not mutually exclusive
Interaction constant α (Yonetani-Theorell) ([1]; combined effects of RMNC6 and EFV on RDDP function): 1.2
IC50 [2]: 5.4 to 20.1 µM
